Values belong to the compound of their own block, whether it stands above or below them.
Key:
γ globin gene = γ globin gene induction by relative quantitative RT-PCR; assay type: cell-based, human; conditions: for γ globin induction (IC50): Table 3, γ globin mRNA induction fold at the compound's IC50, 3 days
Description: (§1) After 3 days of drug-treatment, the total RNA was extracted by RNA Spin mini kit (Ge-Healthcare) and reverse-transcription was performed by using superscript II (Invitrogen) followed the manufactors instruction. Quantitative PCR was performed on LightCycler with using STBR green master mix followed the manufactors instruction (Roche). The absolute quantitative RT-PCR was calculated by the standard curve with supplying a known copy number of plasmids. The relative quantitative RT-PCR was normalized to the expression levels of the β-actin and compared to the mock control.
To search for new agents, which are capable of inducing the expression of γ globin, a series of naphthalimide derivatives with various substituent(s) on the naphthalene ring and the heterocyclic N-atom (A1-A14, B1-B4, C1-C5, D1, and E1-E3, FIG. 2) were synthesized. These derivatives were subjected to evaluating the γ globin induction abilities in differentiated peripheral blood mononuclear cells (PBMCs). The PBMCs isolated from the peripheral blood of donors were expanded and differentiated for a total of 14 days in a two-phase liquid culture. The resulted primary erythoid cells were then treated with different dosages of naphthalimide derivatives individually for another 3 days. The expression levels of the endogenous γ globin gene were estimated by relative quantitative RT-PCR and the proliferation rates of these cells were examined by AlamarBlue cell viability assay. […]; 2-4.5-folds induction of the γ globin gene expression in the compounds-treated cells (FIG. 3).

ε globin = experiment: absolute quantitative RT-PCR, proportion of ε globin mRNA; assay type: cell-based; conditions: primary human erythroid cells, at IC50, 3 days; mock 0.0%
Description: as §1
(§2) To evaluate the specificity of S51021, SS-2394, HU, and NaB in mediating globin genes activation, the amounts of individual P3-liked globin mRNAs were measured by absolute quantitative RT-PCR.
(§3) The primary human erythroid cells were treated with HU (145.9 μM), NaB (221.6 μM), S51021 (21.8 μM) or SS2394 (2.3 μM) for 3 days, and the expression levels of each globin mRNA were estimated by absolute quantitative RT-PCR analysis. The proportions of individual 3-like globin chains among the total 3-like globin mRNA are shown. Data are presented as the mean±SEM, N=3.

γ globin = experiment: absolute quantitative RT-PCR, proportion of γ globin mRNA; assay type: cell-based; conditions: primary human erythroid cells, at IC50, 3 days; mock 7.9%
Description: as §1, §2, §3

β globin = experiment: absolute quantitative RT-PCR, proportion of β globin mRNA; assay type: cell-based; conditions: primary human erythroid cells, at IC50, 3 days; mock 88.8%
Description: as §1, §2, §3

δ globin = experiment: absolute quantitative RT-PCR, proportion of δ globin mRNA; assay type: cell-based; conditions: primary human erythroid cells, at IC50, 3 days; mock 3.3%
Description: as §1, §2, §3

p38 = p38 phosphorylation by western blot; assay type: cell-based, human; conditions: FIG. 5; western blot p-p38/p38, at IC50
Description: FIG. 5 is a graph showing the phosphorylation status of p38 in primary erythroid cells treating with HU, NaB, S51021, or SS-2394. Upper panel: For detection of the phosphorylation status of p38, twenty microgram of total cell lysate extracted from the primary human erythroid cells treated with HU (145.9 μM), NaB (221.6 μM), S51021 (21.8 μM) or SS-2394 (2.3 μM) was analyzed by Western blot analysis using antibody against p-p38 or p38. Lower panel: The signal intensity was quantified by an image-analyzing software. The intensity of p-p38 levels of mock control cells was set as 1. Data are shown as the mean±SEM, N=5.
(§4) After 3 days of compound treatment, total protein or histone of the drug-treated cells was extracted. Histone was extracted by histone extraction buffer (10 mM HEPES, 1.5 mM MgCl2, 10 mM KCl, 0.5 mM DTT, 1.5 mM PMSF and 0.2 N HCl) at 4° C. overnight then centrifuged at 13,000 rpm for 5 minutes and collected the supernatant. Thirty microgram of histone extracts were separated in 15% SDS-PAGE and blotted onto PVDF membrane. After blocking with 5% non-fat milk in TBST, the membrane was then incubated with primary antibody against total histone H4 or total acetyl histone H4 at 4° C. overnight. […]

histone H4 = histone H4 acetylation by western blot; assay type: cell-based, human; conditions: FIG. 6; for global acetylation status of histone H4 (total acH4): at IC50, 3 days
Excerpt: FIG. 6 is a graph showing the acetylation status of histone H4 in primary erythroid cells treating with HU, NaB, S51021 or SS-2394. […] Total histones were extracted by histone extraction buffer. Thirty microgram of histone extract was used for western blot analysis and immunobloted with antibody against histone H4 or acetylated histone H4. Lower panel: The signal intensity was quantified by an image-analyzing software. The intensity of mock control was set as 1. Data are shown as the mean±SEM, N=4.
as §4, with “overnight. Total protein was extracted by modified RIPA (50 mM Tris-HCl pH7.8, 150 mM NaCl, 1% NP-40, 0.5% sodium deoxycholate, 0.1% SDS, 1 mM EGTA, 5 mM EDTA, 10 mM NaF, 1 mM NaV3O4 and 1× complete, EDTA-free Protease Inhibitor Cocktail). Thirty microgram of total protein extracts were separate by 10% SDS-PAGE and blotted onto PVDF membrane. After blocking with 5% non-fat milk in TBST, the membrane was incubated with primary antibody against BCL11A, p38, p-p38, γ-globin or β-actin at 4° C. overnight.” for “overnight.”
Several HDACi, such as NaB, apicidin, and TSA, have been reported to function as HbF-inducing agents. […] To realize whether the epigenetic modification of histone H4 is manipulated by S51021 or SS-2394 treatment, primary human adult erythroid cells were treated with S51021, SS-2394, HU, or NaB for 3 days, and the acetylation status of cellular histone H4 was then analyzed (FIG. 6).

[1] = tested on: primary human erythroid cells; experiment: AlamarBlue cell viability / proliferation assay; conditions: Table 3; primary human erythroid cells, 3 days, proliferation reduced by 50%

γ globin induction (IC50) (γ globin gene): 2.3 fold
EC (μM) induction of HU IC50 (2.3 fold) (γ globin gene; concentration inducing γ globin gene expression 2.3-fold, primary human erythroid cells): 145.9 µM
SMILES: NC(=O)NO [HU, hydroxyurea]
ε globin proportion of total β-like globin mRNA (ε globin): 0.1 ± 0.0%
γ globin proportion of total β-like globin mRNA (γ globin): 11.2 ± 1.1%
β globin proportion of total β-like globin mRNA (β globin): 84.2 ± 1.3%
δ globin proportion of total β-like globin mRNA (δ globin): 4.5 ± 0.2%
phosphorylation level of p38 (p38): significantly increased
histone deacetylase inhibitor or not (conclusion from acH4) (histone H4): not histone deacetylase inhibitors
global acetylation status of histone H4 (total acH4) (histone H4): not dramatically alternated
IC50 [1]: 146 µM

SMILES: CCCC(=O)[O-].[Na+] [NaB, sodium butyrate]
expression level of γ globin mRNA (γ globin gene; FIG. 4A, at IC50, 3 days, relative to mock): not
γ globin induction (IC50) (γ globin gene): 1.3 fold
ε globin proportion of total β-like globin mRNA (ε globin): 0.1 ± 0.0%
γ globin proportion of total β-like globin mRNA (γ globin): 10.8 ± 1.0%
β globin proportion of total β-like globin mRNA (β globin): 87.4 ± 1.0%
δ globin proportion of total β-like globin mRNA (δ globin): 1.8 ± 0.1%
phosphorylation level of p38 (p38): significantly increased
global acetylation status of histone H4 (total acH4) (histone H4): significantly enhanced
IC50 [1]: 222 µM

— patent US20170290820A1, “METHODS AND COMPOSITIONS FOR TREATING BETA-THALASSEMIA AND SICKLE CELL DISEASE” (Academia Sinica, priority 2013, published 2017)
